{"source": "patent US7410699B2", "about": "“Finely particulate composite containing carbon compound encapsulated in a polymer micelle of a block copolymer” (Japan Science and Technology Agency, priority 2003, dated 2008)", "origin": "cited, not measured here", "settings": "Journal of Colloid and Interface Science, 263, (2003), 1-3", "data": [{"smiles": "c12c3c4c5c1c1c6c7c2c2c8c3c3c9c4c4c%10c5c5c1c1c6c6c%11c7c2c2c7c8c3c3c8c9c4c4c9c%10c5c5c1c1c6c6c%11c2c2c7c3c3c8c4c4c9c5c1c1c6c2c3c41", "note": "[fullerene]", "values": [{"measurement": "water-solubility (amount of solubilized fullerene)", "value": 21.0, "unit": "µg/mL"}]}]}
